Where a name gives a salt, the structure may show the parent alone. Read-outs that look alike come from different tables or passages of the source.
Tests used:
[1] = test system: whole complement; assay: In vivo complement inhibition in guinea pigs (whole complement of serum, capillary tube assay); parameters: species or system guinea pig; conditions: for change in vivo at 200 mg/kg: Cavia porcellus, ip
From the text: (§1) An active inhibitor protects C2 from C1 and C4; (ii) Test, Code 035 (C3-C9 inhibitor)--This test determines the ability of the late components of human complement (C3-C9) to lyse EAC 142 in the presence of appropriate dilutions of the test compound. An active inhibitor protects EAC 142 from lysis by human C3-C9; (iii) Test, Code 036 (C-Shunt inhibitor)--In this test human erythrocytes rendered fragile are lysed in autologous serum via the shunt pathway activated by cobra venom factor in the presence of appropriate dilutions of the test compound. Inhibition of the shunt pathway results in failure of lysis; (iv) Forssman Vasculitis Test--Here, the well known complement dependent lesion, Forssman vasculitis, is produced in guinea pigs by intradermal injection of rabbit anti-Forssman antiserum. The lesion is measured in terms of diameter, edema and hemorrhage and the extent to which a combined index of these is inhibited by prior intraperitoneal injection of the test compound at 200 mg/kg is then reported, unless otherwise stated; (v) Forssman Shock Test--Lethal shock is produced in guinea pigs by an i.v. injection of anti-Forssman antiserum and the harmonic mean death time of treated guinea pigs is compared with that of simultaneous controls; (vi) Complement Level Reduction Test--In this test, the above dosed guinea pigs, or others, are bled for serum and the complement level is determined in undiluted serum by the capillary tube method of U.S. Pat. No. 3,876,376 and compared to undosed control guinea pigs; and (vii) Cap 50 Test--Here, appropriate amounts of the test compound are added to a pool of guinea pig serum in vitro, after which the undiluted serum capillary tube assay referred to above is run. The concentration of compound inhibiting 50% is reported.
With reference to Table I, guinea pigs weighing about 300 g were dosed intravenously (i.v.) or intraperitoneally (i.p.) with 200 mg/kg of the test compound dissolved in saline and adjusted to pH 7-8. […] The serum was tested for whole complement using the capillary tube assay. Percent inhibition was calculated by comparison with simultaneous controls. The results appear in Table I together with results of tests, Code 026, 035, 036, Cap 50, percent inhibition and Forssman shock.

[2] = target: T1, human C1 (Homo sapiens, UniProt P09871); assay: Test, Code 026 (C1 inhibitor): protection of fluid phase human C2 from activated human C1; type: biochemical; conditions: activity in wells, twofold serial dilution; higher well number indicates higher activity
T1 construct: substrate fluid phase human C2, in presence of C4
From the text: as §1
(§2) **Activity in wells, a serial dilution assay. Higher well number indicate
(§3) higher activity. The serial dilutions are twofold.

[3] = test system: shunt pathway; assay: Test, Code 036 (C-Shunt inhibitor): lysis of human erythrocytes in autologous serum via shunt pathway activated by cobra venom factor; type: cell-based; conditions: activity in wells, twofold serial dilution; higher well number indicates higher activity
From the text: as §1, §2, §3

[4] = test system: late components of human complement (C3-C9); assay: Test, Code 035 (C3-C9 inhibitor): lysis of EAC 142 by late components of human complement; type: cell-based; conditions: activity in wells, twofold serial dilution; higher well number indicates higher activity
From the text: as §1, §2, §3

[5] = 2 h, intraperitoneal, 200 mg/kg, 120 mins., read-out: In Vivo Activity (Guinea Pig) % Inhibition Intraperitoneal 120 mins.
[6] = 0.5 h, read-out: In Vivo Activity (Guinea Pig) % Inhibition Intraperitoneal 30 mins.
[7] = 1 h, read-out: In Vivo Activity (Guinea Pig) % Inhibition Intraperitoneal 60 mins.
[8] = 2 h, read-out: In Vivo Activity (Guinea Pig) % Inhibition Intraperitoneal 120 mins.
[9] = 0.5 h, intraperitoneal, 200 mg/kg, 30 mins., read-out: In Vivo Activity (Guinea Pig) % Inhibition Intraperitoneal 30 mins.
[10] = 1 h, intraperitoneal, 200 mg/kg, 60 mins., read-out: In Vivo Activity (Guinea Pig) % Inhibition Intraperitoneal 60 mins.

T1 sequence (P09871 16-688): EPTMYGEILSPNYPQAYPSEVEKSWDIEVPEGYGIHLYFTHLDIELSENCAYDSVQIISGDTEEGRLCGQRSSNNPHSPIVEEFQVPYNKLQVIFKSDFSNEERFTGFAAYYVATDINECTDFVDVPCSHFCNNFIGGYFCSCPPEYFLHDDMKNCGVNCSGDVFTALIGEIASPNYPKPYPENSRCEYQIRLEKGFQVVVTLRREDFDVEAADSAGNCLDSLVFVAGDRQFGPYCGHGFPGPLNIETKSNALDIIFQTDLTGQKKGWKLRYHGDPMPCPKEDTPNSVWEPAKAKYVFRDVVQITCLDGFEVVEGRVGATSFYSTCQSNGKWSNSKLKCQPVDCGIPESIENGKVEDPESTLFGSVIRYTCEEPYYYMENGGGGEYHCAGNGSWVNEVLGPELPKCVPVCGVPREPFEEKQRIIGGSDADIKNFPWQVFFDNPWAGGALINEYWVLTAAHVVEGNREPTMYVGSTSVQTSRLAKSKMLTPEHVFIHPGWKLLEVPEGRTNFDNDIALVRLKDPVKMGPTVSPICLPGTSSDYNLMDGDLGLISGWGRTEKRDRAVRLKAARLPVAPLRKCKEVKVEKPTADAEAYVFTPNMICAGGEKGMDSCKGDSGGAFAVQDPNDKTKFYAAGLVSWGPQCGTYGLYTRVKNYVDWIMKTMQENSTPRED
T1 sequence (P00736 18-705 partner): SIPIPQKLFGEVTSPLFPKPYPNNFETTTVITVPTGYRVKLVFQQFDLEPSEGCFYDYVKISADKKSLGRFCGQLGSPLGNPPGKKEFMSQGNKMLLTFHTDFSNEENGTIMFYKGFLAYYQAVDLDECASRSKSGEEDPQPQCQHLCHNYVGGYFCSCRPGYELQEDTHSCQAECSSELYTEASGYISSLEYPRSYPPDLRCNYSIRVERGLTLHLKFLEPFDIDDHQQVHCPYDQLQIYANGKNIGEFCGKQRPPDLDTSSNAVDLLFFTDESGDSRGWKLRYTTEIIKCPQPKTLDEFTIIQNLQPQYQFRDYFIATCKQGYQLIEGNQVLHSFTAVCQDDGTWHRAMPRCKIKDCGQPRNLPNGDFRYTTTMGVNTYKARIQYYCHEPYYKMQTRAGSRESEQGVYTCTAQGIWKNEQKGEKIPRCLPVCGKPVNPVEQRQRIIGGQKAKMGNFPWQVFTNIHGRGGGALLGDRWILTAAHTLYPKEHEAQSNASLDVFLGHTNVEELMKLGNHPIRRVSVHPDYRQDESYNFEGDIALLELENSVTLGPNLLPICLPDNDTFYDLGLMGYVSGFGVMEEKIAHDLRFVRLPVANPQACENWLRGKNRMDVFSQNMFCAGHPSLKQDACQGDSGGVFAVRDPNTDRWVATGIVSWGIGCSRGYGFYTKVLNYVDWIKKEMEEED
T1 sequence (P02745 23-245 partner): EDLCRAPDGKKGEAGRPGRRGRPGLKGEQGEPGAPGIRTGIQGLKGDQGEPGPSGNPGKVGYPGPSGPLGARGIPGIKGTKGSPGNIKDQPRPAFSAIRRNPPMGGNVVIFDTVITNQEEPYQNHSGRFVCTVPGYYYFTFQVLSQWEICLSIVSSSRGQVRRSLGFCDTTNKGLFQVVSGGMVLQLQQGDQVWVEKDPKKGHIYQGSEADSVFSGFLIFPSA
T1 sequence (P02746 28-253 partner): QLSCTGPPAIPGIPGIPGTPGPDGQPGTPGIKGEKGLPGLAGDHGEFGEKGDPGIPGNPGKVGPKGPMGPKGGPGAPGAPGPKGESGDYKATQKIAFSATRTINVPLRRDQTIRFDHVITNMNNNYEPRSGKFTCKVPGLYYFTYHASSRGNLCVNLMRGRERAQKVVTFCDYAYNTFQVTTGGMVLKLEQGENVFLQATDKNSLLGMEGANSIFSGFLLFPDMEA
T1 sequence (P02747 29-245 partner): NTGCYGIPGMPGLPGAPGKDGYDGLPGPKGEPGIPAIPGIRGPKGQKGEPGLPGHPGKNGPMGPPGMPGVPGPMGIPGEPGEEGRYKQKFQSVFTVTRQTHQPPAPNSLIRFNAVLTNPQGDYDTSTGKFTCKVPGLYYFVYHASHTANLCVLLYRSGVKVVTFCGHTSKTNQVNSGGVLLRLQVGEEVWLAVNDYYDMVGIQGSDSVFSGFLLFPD

SMILES	change in vivo at 200 mg/kg [1, 5]	C1 026* Wells [2]	Shunt Inhibition 036* Wells [3]	C-Late 035* Wells [4]	change in vivo at 200 mg/kg [1, 6]	change in vivo at 200 mg/kg [1, 7]	change in vivo at 200 mg/kg [1, 8]	change in vivo at 200 mg/kg [1, 9]	change in vivo at 200 mg/kg [1, 10]	In Vivo Activity (Guinea Pig) % Inhibition Intravenous 2 mins. ([1]; 200 mg/kg)	In Vivo Activity (Guinea Pig) % Inhibition Intravenous 30 mins. ([1]; 200 mg/kg, 30 mins.)	In Vivo Activity (Guinea Pig) % Inhibition Intravenous 120 mins. ([1]; 200 mg/kg, 120 mins.)
O=C(Nc1cc(C(=O)O)cc(C(=O)Nc2cc(S(=O)(=O)O)cc3cc(S(=O)(=O)O)cc(O)c23)c1)Nc1cc(C(=O)O)cc(C(=O)Nc2cc(S(=O)(=O)O)cc3cc(S(=O)(=O)O)cc(O)c23)c1 [3,3'-(Carbonyldiimino)bis[5-[(8-hydroxy-3,6-disulfo-1-naphthalenyl)aminocarbonyl]]benzoic acid tetrasodium salt]	-69%	+6 Wells										
O=C(Nc1cc(C(=O)O)cc(C(=O)Nc2ccc(S(=O)(=O)O)c3cc(S(=O)(=O)O)cc(O)c23)c1)Nc1cc(C(=O)O)cc(C(=O)Nc2ccc(S(=O)(=O)O)c3cc(S(=O)(=O)O)cc(O)c23)c1 [3,3'-Ureylenebis{5-[(8-hydroxy-4,6-disulfo-1-naphthenyl)aminocarbonyl]-benzoic acid}tetrasodium salt]	-94%	+4 Wells	+2 Wells									
O=C(Nc1ccc(C(=O)Nc2cc3ccccc3cc2C(=O)[O-])c(S(=O)(=O)[O-])c1)Nc1ccc(C(=O)Nc2cc3ccccc3cc2C(=O)[O-])c(S(=O)(=O)[O-])c1.[Na+].[Na+].[Na+].[Na+] [3,3'-{Ureylenebis[(2-sulfo-4,1-phenylene)carbonylimino]}di-2-naphthoic acid tetrasodium salt]		N	N	+3 Wells								
O=C(Nc1ccc(C(=O)Nc2ccc(S(=O)(=O)[O-])c3cc(S(=O)(=O)[O-])cc(O)c23)c(S(=O)(=O)[O-])c1)Nc1ccc(C(=O)Nc2ccc(S(=O)(=O)[O-])c3cc(S(=O)(=O)[O-])cc(O)c23)c(S(=O)(=O)[O-])c1.[Na+].[Na+].[Na+].[Na+].[Na+].[Na+] [4,4'-Ureylenebis[(2-sulfo-4,1-phenylenecarbonyl)imino]bis[5-hydroxy-1,7-naphthalenedisulfonic acid] hexasodium salt]		+7 Wells	+5 Wells	N	1%	-3%	-24%					
O=C(Nc1ccc(C(=O)Nc2cc(S(=O)(=O)[O-])cc3cc(S(=O)(=O)[O-])ccc23)c(S(=O)(=O)[O-])c1)Nc1ccc(C(=O)Nc2cc(S(=O)(=O)[O-])cc3cc(S(=O)(=O)[O-])ccc23)c(S(=O)(=O)[O-])c1.[Na+].[Na+].[Na+].[Na+].[Na+].[Na+] [4,4'-{Ureylenebis[(2-sulfo-4,1-phenylenecarbonyl)imino]}-di-2,7-naphthalenedisulfonic acid hexasodium salt]			N									
O=C(Nc1ccc(C(=O)Nc2cc(S(=O)(=O)O)cc3cc(S(=O)(=O)O)cc(O)c23)c(S(=O)(=O)O)c1)Nc1ccc(C(=O)Nc2cc(S(=O)(=O)O)cc3cc(S(=O)(=O)O)cc(O)c23)c(S(=O)(=O)O)c1 [4,4'-{Ureylenebis[(2-sulfo-4,1-phenylenecarbonyl)imino]}bis-[5-hydroxy-2,7-naphthalenedisulfonic acid]hexasodium salt]	-74%							-35%	-41%	-98%	-81%	-63%
Cc1ccc(NC(=O)Nc2ccc(C)c(C(=O)Nc3ccc(S(=O)(=O)[O-])c4cc(S(=O)(=O)[O-])cc(O)c34)c2)cc1C(=O)Nc1ccc(S(=O)(=O)[O-])c2cc(S(=O)(=O)[O-])cc(O)c12.[Na+].[Na+].[Na+].[Na+] [4,4'-{Ureylenebis[(6-methyl-3,1-phenylenecarbonyl)imino]}-bis[5-hydroxy-1,7-naphthalenedisulfonic acid], tetrasodium salt]			+2 Wells									
O=C(Nc1ccc(C(=O)Nc2cccc3cc(S(=O)(=O)O)cc(O)c23)c(S(=O)(=O)O)c1)Nc1ccc(C(=O)Nc2cccc3cc(S(=O)(=O)O)cc(O)c23)c(S(=O)(=O)O)c1 [5,5'-{Ureylenebis[(2-sulfo-4,1-phenylenecarbonyl)imino]}-bis[4-hydroxy-2-naphthalenesulfonic acid]tetrasodium salt]	-58%	+2 Wells						-26%	0%			
O=C(Nc1ccc(S(=O)(=O)[O-])c(C(=O)Nc2cc(S(=O)(=O)[O-])cc3cc(S(=O)(=O)[O-])cc(S(=O)(=O)[O-])c23)c1)Nc1ccc(S(=O)(=O)[O-])c(C(=O)Nc2cc(S(=O)(=O)[O-])cc3cc(S(=O)(=O)[O-])cc(S(=O)(=O)[O-])c23)c1.[Na+].[Na+].[Na+].[Na+].[Na+].[Na+].[Na+].[Na+] [8,8'-[Carbonylbis[imino[(-6-sulfo-3,1-phenylene)]carbonylimino]]-bis-1,3,6-naphthalenetrisulfonic acid octasodium salt]		+7 Wells	+1 Wells		-23%	-58%	-71%					
O=C(Nc1ccc(C(=O)Nc2cc(S(=O)(=O)[O-])cc3cc(S(=O)(=O)[O-])cc(S(=O)(=O)[O-])c23)cc1)Nc1ccc(C(=O)Nc2cc(S(=O)(=O)[O-])cc3cc(S(=O)(=O)[O-])cc(S(=O)(=O)[O-])c23)cc1.[Na+].[Na+].[Na+].[Na+].[Na+].[Na+] [8,8'-[Ureylenebis(4,1-phenylenecarbonylimino)]di-1,3,6-naphthalenetrisulfonic acid hexasodium salt]		+4 Wells			-18%	-21%	-33%			-71%	-28%	-16%
O=C(Nc1ccc(C(=O)Nc2ccc(S(=O)(=O)[O-])c3cc(S(=O)(=O)[O-])cc(S(=O)(=O)[O-])c23)c(S(=O)(=O)[O-])c1)Nc1ccc(C(=O)Nc2ccc(S(=O)(=O)[O-])c3cc(S(=O)(=O)[O-])cc(S(=O)(=O)[O-])c23)c(S(=O)(=O)[O-])c1.[Na+].[Na+].[Na+].[Na+].[Na+].[Na+].[Na+].[Na+] [8,8'-{Ureylenebis[(2-sulfo-4,1-phenylenecarbonyl)imino]}di-1,3,5-naphthalenetrisulfonic acid octasodium salt]				+1 Wells	-32%	-31%	-51%			-89%	-45%	-29%
O=C(Nc1ccc(C(=O)Nc2cc(S(=O)(=O)O)cc3cc(S(=O)(=O)O)cc(S(=O)(=O)O)c23)c(S(=O)(=O)O)c1)Nc1ccc(C(=O)Nc2cc(S(=O)(=O)O)cc3cc(S(=O)(=O)O)cc(S(=O)(=O)O)c23)c(S(=O)(=O)O)c1 [8,8'-{Ureylenebis{[(2-sulfo-4,1-phenylene)carbonyl]imino}}-1,3,6-naphthalenetrisulfonic acid octasodium salt]	-8%							4%	17%	-85%	-53%	-24%

Reference: patent publication US4229584A, “Ureylenebis(anionic substituted phenylene carbonyl)imino naphthalene sulfonic acids and naphthalene carboxylic acids and their salts” (American Cyanamid Company, priority 1978, dated 1980)
